Consider seven compounds from patent US11267809B2, “BAF complex modulating compounds and methods of using the same” (THE BOARD OF TRUSTEES OF THE LELAND STANFORD JUNIOR …, priority 2017, dated 2022).

Assay [1] has as its system HCT116 cells. The experiment in a line: Synergy viability assay (CellTitre blue, 5 days), HCT116 ARID1A(+/+). It is filed as cell-based, human. The settings on record: for average combination index (CI) of putative inhibitor: with VE-821 (1-30 uM) and putative inhibitor (1-30 uM); for average combination index (CI) of putative inhibitor / average combination index (CI) of TOP2 inhibitor / IC50: 5 days; for average combination index (CI) of TOP2 inhibitor: with VE-821, ARID1A(+/+); for IC50: Homo sapiens, HCT-116, 120 h, read-out: VE-821 IC50 in combination with BAFi. Here is the method:
To assess drug synergy, the Chou-Talalay method was employed to provide a mechanism-independent method to quantify the synergism of drug interactions. This method combines elements of the Scatchard, Michaelis-menten, Hill, and Henderson-Hasslebalch equations through the law of mass-action^31,32 to generate a quantifiable assessment of synergy. Molecules were tested both independently and then in 25 different combinations in HCT116 cells for 5 days as described above. To determine a combination index (CI), median-effect equations of the two respective molecules were determined from their respective dose responses. The median-effect equation was used to calculate a median-effect dose, and (Dx)ATRi,BAFi values which correspond for the respective doses of the BAFi and ATRi compounds and correlate with a given percentage of cells affected by the individual treatments. Normalized index values (IATRi, IBAFi), and the combination index are a ratio between the treatment dose, and the Dx for a given fraction of affected cells. Combination indices less than 0.9 are considered synergistic, while values ranging from 0.9 to 1.1 are additive, and CIs above 1.1 are antagonistic.
(§1) Viability assays were performed in 384-well plates. Cells were plated at 500 cells/well. Each drug was administered in 5-doses with 4 replicates per plate, and each 5×5 drug combination was administered with 8 replicates per plate, 24 hours after seeding. All error bars represent 4 or 8 technical replicates averaged over 3 independent experiments. Media containing fresh drug was replaced every 48 hours. After 5 days, cellular viability was measured using CellTitre blue, as described by the manufacturer.

Assay [2] relates to HCT116 (ARID1A−/−) cell line. The experiment in a line: Synergy viability assay, HCT116 ARID1A(-/-). It is filed as cell-based, human. The settings on record: for average combination index (CI) of TOP2 inhibitor: with VE-821, ARID1A(−/−), 5 days.
Excerpt: (§2) SMARCA4, the primary target of our original screen, is present in both human BAF and PBAF complexes in cancer^12. PBAF complexes differ from BAF complexes by incorporation of specific subunits. Specifically, PBAF complexes contain ARID2 (as opposed to ARID1A/B), PHF10 (BAF45a) (as opposed to […] (BAF45d)), PBRM1, and lack the BAF-specific subunit SS18. PBAF specific subunits are also frequently mutated in cancer, specifically renal clear cell carcinomas and cholangiocarcinomas^33-36. To assess whether the lead compound is targeting BAF, PBAF complexes, or both, we constitutively knocked down ARID1A or ARID2 by lentiviral transduction of HCT116 cells and compared the BAFi/ATRi synergy to the wild-type (ARID1A+/+).
Isogenic HCT116 ARID1A(+/+) and ARID1A(−/−) cell lines were originally obtained from Horizon Discovery. MCF-7, Cal-51, A-704, and MDA-MB-436, MDA-MB-468, HCC1143, HCC1187, HCC1954, and ACHN cell lines were obtained from American Type […]. All cell lines were grown in McCoy's 5a Media supplemented with 10% FBS.
as §1

For assay [3], the system named is HCT116 cells infected with shRNA lentivirus targeting ARID1A. The experiment in a line: Synergy viability assay, HCT116 with shARID1A knockdown. It counts as cell-based, human. The conditions noted are these: single agent, 5 continuous days.
Excerpt: as §2, with “(ARID1A+/+). […] Further, upon knockdown of ARID1A or ARID2 (FIG. 3b), the synergistic effect observed between Baficillin1 and VE-821 was ablated upon loss of ARID1A (FIG. 3e) (CIshARID1A=1.48±0.14), but not loss of shARID2 (CIshARID2=0.42±0.04) (FIG. 3c-e).” for “(ARID1A+/+).”
as §1
Lentiviruses were produced in Lenti-X 293T cells (Clonetech) via spinfection with polyethylenimine transfection. 293T-x cells were transfected with PEI (Polysciences Inc., 24765) with lentiviral PLKO shARID1A or GIPZ shARID2 knockdown vectors, co-transfected with packaging vectors pspax2 and pMD2.G as previously described^49. PLKO shRNA construct targeting ARID1A (TRCN0000059090: shRNA-2) was obtained^50 and GIPZ Human ARID2 shRNA was purchased from Dharmacon (CloneId:V2LHS_74399). […]

Assay [4] deals with HCT116 cells. The settings on record: 5 days of treatment, before ARID1A deletion, read-out: IC50 of VE-821; cited from earlier work.
Assay [5] has as its system HCT116 cells, ARID1A deleted. The conditions noted are these: HCT116 cells upon deletion of ARID1A, 5 days of treatment; read-out: IC50 of VE-821; cited from earlier work.

Where two headings read alike, the source gives them in different places.

Turning to `CCc1nc(N)nc(N)c1-c1ccc(Cl)cc1` [Chloroidine, Pyrimethamine], the “average combination index (CI) of putative inhibitor” value in assay [1] is recorded as 1.3±0.18.

`COc1cccc2c1C(=O)c1c(O)c3c(c(O)c1C2=O)C[C@@](O)(C(=O)CO)C[C@@H]3O[C@H]1C[C@H](N)[C@H](O)[C@H](C)O1` [Doxorubicin]: the “average combination index (CI) of TOP2 inhibitor” value in assay [1] stood at 0.87±0.07; in assay [2] it was 0.95±0.06.

On to `COc1ccc2c(C)nc(Nc3nc(C)c(C)c(=O)[nH]3)nc2c1` [Madrasin], for which, in assay [1], the “average combination index (CI) of putative inhibitor” value was found to be 1.4±0.04.

As for `O=C(/C=C/N1C[C@H]2C[C@@H]1CN2c1ccccn1)c1ccccc1O` [PFI-3], the “individual dose-response or synergy with VE-821” value in assay [1] (ARID1A(+/+) condition, as treated in FIG. 4c) was “no measurable individual dose-response or synergy effects”; in assay [2] (ARID1A(−/−) condition), “no measurable individual dose-response or synergy effects”.

As for `CS(=O)(=O)c1ccc(-c2cnc(N)c(C(=O)Nc3ccccc3)n2)cc1` [VE-821], the IC50 in assay [1] (highest dose of BAFi (Baficillin1) tested in combination) is approximately 1000 nM; in assay [1] (lowest dose of BAFi (Baficillin1) 1.25 uM), approximately 4000 nM; in assay [4], approximately 10000 nM; in assay [5], approximately 1000 nM. Also, the “sensitivity (cell survival) compared to wild-type HCT116” value was “increased sensitivity” in assay [3] and “increased sensitivity” in assay [2] (single agent, 5 continuous days).

For `CC(Oc1ccc(Oc2cnc3ccc(Cl)cc3n2)cc1)C(=O)O` (stereo not shown) [XK469], the figures for the “average combination index (CI) of TOP2 inhibitor” value in assay [1] and in assay [2] were 0.75±0.05 and 0.85±0.09, respectively.

On to ICRF-193, for which the “average combination index (CI) of TOP2 inhibitor” value in assay [1] stood at 1.0±0.05; in assay [2], 0.82±0.08.
